Each structure is given as a SMILES string. ≈ marks a conversion by molar mass, not a printed value. Like-named read-outs stand apart in the source and are kept apart here.

In series [1] the test system is HT-29 (Colorectal adenocarcinoma). Kind of series: CCK-8 cell proliferation, colorectal cancer cells. The format is cell-based, human. The conditions noted are these: for IC50: HT-29, 72 hr, CCK-8; for SI (Selectivity Index): IC50 for Normal cell (CCD 18Co)/IC50 for HT-29. The procedure:
(§1) Specifically, the cell lines cultured in each well of a 96-well plate were dispensed at a density of 18,000 cells per well and cultured overnight, and then the cells were treated with drugs dissolved in various concentrations in the culture medium, and were incubated for 72 hr under a temperature of 37° C. and 5% CO2 condition in a humidified incubator. After completion of the culture, the medium was removed and replaced with 100 μl of PBS, and […] Cell Counting Kit-8 (CCK-8; Dojindo, Japan) solution was added thereto, and the cells were incubated for 3 hr for reaction. Thereafter, the degree of color development of the reaction solution was measured based on absorbance at 450 nm, and the number of cell proliferation was calculated according to the instructions of the producing company.
(§2) HT-29 cells were cultured in McCoy's 5A medium, LoVo cells were cultured in Ham's F-12K (Kaigh's) medium, CCD 18Co cells were cultured in DMEM. Before use, 10% Fetal bovine serum and 100 U/ml penicillin, streptomycin were added to all media.

In series [2] the test system is CCD 18Co (Normal Human colon fibroblast primary cell line). Description: CCK-8 cell proliferation, normal colon cells. The format is cell-based. The conditions noted are these: 72 hr. The procedure: as §1, §2
In series [3] the test system is Lovo (Colorectal adenocarcinoma capable of metastasis). Kind of series: CCK-8 cell proliferation, metastasis colorectal cancer cells. The format is cell-based, human. As to conditions: for IC50: Lovo, 72 hr, CCK-8; for SI (Selectivity Index): IC50 for Normal cell (CCD 18Co)/IC50 for Lovo. On the procedure: as §1, §2
A short description of series [4]: In vivo pharmacokinetics in rats (FA in plasma, LC MS/MS). As to conditions: male, Sprague Dawley; rat plasma, single oral dose 100 mg/kg FA. The procedure: In order to evaluate the in vivo pharmacokinetics of FA-FOS II, the release profile of ferulic acid (FA) released from FA-FOS II in the colon of rats was investigated. Specifically, male Sprague Dawley rats weighing 180 to 250 g were randomly assigned to three groups as follows.
(ii) Ferulic acid (FA) administered group: a drug is prepared by dissolving ferulic acid (FA) in water and is administered orally thereto at a predetermined dose
(iii) FA-FOS II administered group: a drug is prepared by dissolving FA-FOS II in water and is administered orally thereto at a predetermined dose
Ferulic acid (FA) was orally administered to the rats at a dose of 100 mg/kg body weight, based on the amount of ferulic acid (FA), in the state dissolved in sterile water. Further, FA-FOS II was orally administered thereto at a dose of 3.89 g/kg body weight (equivalent to 100 mg/kg body weight in terms of the amount of ferulic acid) based on the amount of FA-FOS II, in the state dissolved in sterile water. After single dose administration via oral intake, rat blood was continuously sampled over 0, 0.5, 1, 3, 6, 8, 12, 24 hr. The sampled samples were subjected to LC MS/MS analysis in a multiple reaction monitoring (MRM) manner of a molecular weight 193.0/133.9 Da (intact mass/fragment mass of FA) to quantify the FA released from plasma.

For the compound `O=c1[nH]cc(F)c(=O)[nH]1` [5-Fluorouracil, 5-fluorouracil], the IC50 worked out at 0.008 µg/mL (≈ 0.0615 µM) in series [1] (Homo sapiens, read-out: IC50); 0.014 µg/mL (≈ 0.108 µM) in series [2] (Homo sapiens, read-out: IC50); 0.074 µg/mL (≈ 0.569 µM) in series [3] (Homo sapiens, read-out: IC50). Also, the “SI (Selectivity Index)” value in series [1] is “(SI: 1.685)”; in series [3], “(SI: 0.186)”.
For `COc1cc(/C=C/C(=O)O)ccc1O` [FA, ferulic acid], the IC50 in series [1] (Homo sapiens, read-out: IC50) is 0.2 µg/mL (≈ 1.03 µM); in series [2] (Homo sapiens, read-out: IC50), 0.583 µg/mL (≈ 3 µM); in series [3] (Homo sapiens, read-out: IC50), 0.244 µg/mL (≈ 1.26 µM). The results for the “SI (Selectivity Index)” value in series [1] and in series [3] were “(SI: >2.918)” and “(SI: >2.389)”, respectively. In series [4], the Tmax was about 5 min. In series [4], this compound yielded a half-life of about 30 min.
Consider `O=C1[O][Pt]2([NH][C@@H]3CCCC[C@H]3[NH]2)[O]C1=O` [Oxaliplatin, oxaliplatin], for which the IC50 in series [1] amounted to 0.015 µg/mL; in series [2] it was 0.100 µg/mL; in series [3] it was 0.068 µg/mL. For the same compound, the “SI (Selectivity Index)” value in series [1] is “(SI: 6.631)”; in series [3], “(SI: 1.473)”.

The term IC50 denotes the point on the concentration scale where inhibition reaches its midpoint. As a reminder, the Tmax is the time at which the peak concentration occurs. By half-life is commonly meant the time in which the quantity being followed falls by half. The low end stands for rapid decline, the high end for slow decline.

The values above are taken from patent publication US20210403498A1, “PHYTOCHEMICAL-FRUCTOOLIGOSACCHARIDE CONJUGATE, METHOD FOR PRODUCING SAME, AND USE THEREOF” (EVERGREEN BIO CO., LTD., priority 2018, published 2021).
